Each structure is given as a SMILES string. Values after ≈ are worked out from the molar mass of the structure shown. Where only a bound is given, the exact number is not on record here.

For the data set the following is noted: buffer; pH 7.4; 200.0 µM.
As usually defined, the kinetic solubility is solubility judged after dilution from a stock solution rather than from solid. `COc1cc(CNCc2cccc3ccccc23)cc(OC)c1` returned a kinetic solubility of 34.1 µg/mL (≈ 111 µM).

The compound `O=C(O)c1cccnc1` displayed a solubility (kinetic) of over 18.5 µg/mL. In turn, `CN1CCN(c2ccccc2NC(=O)c2ccc(F)cc2)CC1` had a kinetic solubility of over 47 µg/mL. The compound `Cc1ccc(C)n1-c1ccc(C(=O)NCc2ccncc2)cc1` returned a kinetic solubility of 38.3 µg/mL (≈ 125 µM). For the compound `COC(=O)c1cc(CNC(=O)C2CC(=O)N(c3ccc4c(c3)OCCO4)C2)ccc1OC` (centres undefined), the kinetic solubility was determined as 64.7 µg/mL (≈ 147 µM).

In turn, `N#Cc1ccccc1OCC(=O)Nc1ccc2c(c1)OCCCO2` had a kinetic solubility of over 48.7 µg/mL.

The compound `Cl.Oc1ccc(-c2csc(Nc3cccc4ccccc34)n2)cc1O` came in with a solubility (kinetic) of 15.2 µg/mL. Regarding `O=C(COC(=O)c1cc(S(=O)(=O)N2CCOCC2)ccc1F)Nc1ccc2c(c1)OCO2`, the solubility (kinetic) worked out at 54.8 µg/mL (≈ 117 µM). The compound `Nc1cc(=O)[nH]c(SCC(=O)c2ccc(O)cc2O)n1` returned a solubility (kinetic) of over 44 µg/mL. In turn, `O=c1c(Cc2ccc(F)cc2)c(O)ccn1CCCn1ccnc1` showed a solubility (kinetic) of over 49.1 µg/mL.

Regarding `CC(=O)Nc1ccc(Nc2cc(C)c3ccccc3n2)cc1`, the kinetic solubility came to 41.6 µg/mL (≈ 143 µM). As for `CNc1ccc([N+](=O)[O-])cc1-c1nc2ccccc2[nH]c1=O`, the kinetic solubility is 0.2 µg/mL (≈ 0.675 µM). The figure for `COc1ccc2nc(C)cc(Nc3ccc(N4CCN(C)CC4)cc3)c2c1` is over 54.4 µg/mL; for `COc1ccc(C(=O)N/N=C\c2ccoc2)cc1` it is over 36.6 µg/mL. For `NC(=O)Cn1ccc(O)c(Cc2ccc(Cl)cc2Cl)c1=O`, the kinetic solubility was over 49.1 µg/mL. The result for `Cc1ccc(C2(O)CN3CCC2CC3)cc1.Cl` (centres undefined) reads over 38.1 µg/mL; that for `O=C(O)CN=CC1=C(O)CC(c2ccccc2)CC1=O` (centres undefined), 39.9 µg/mL (≈ 146 µM). Take `CC(C)(C)CC(=O)NC(=S)NCc1ccco1`: the solubility (kinetic) is 9.3 µg/mL (≈ 36.6 µM). `CCOc1ccc(NC(=O)N(c2ccccc2)c2ccccc2)cc1` returned a kinetic solubility of 2.5 µg/mL (≈ 7.52 µM). In the case of `COc1cccc(OC)c1OC(=O)C1CC(=O)N(c2ccc3c(c2)OCCO3)C1` (centres undefined), the kinetic solubility was over 59.9 µg/mL. With `Cc1cc(C(=O)NCc2ccco2)c2cc(F)ccc2n1`, the solubility (kinetic) was 42.3 µg/mL (≈ 149 µM). In turn, `O=C(O)c1ccccc1-c1ccccc1C(=O)NCCc1ccccc1` had a solubility (kinetic) of 50.4 µg/mL (≈ 146 µM).

`CCCCOc1ccc(C(=O)Nc2ccc3c(c2)OCO3)cc1` came in with a kinetic solubility of under 0.7 µg/mL. On to `N#Cc1c(N)n(-c2ccc(N)cc2)c2nc3ccccc3nc12`, for which the solubility (kinetic) stood at 1.2 µg/mL (≈ 4 µM). As to `CSc1ccc(S(=O)(=O)NCCCn2ccnc2)cc1`, the kinetic solubility is over 46.7 µg/mL. Compound `Cc1cc(C(=O)N(C)C2CCCCC2)no1` yielded a solubility (kinetic) of over 33.3 µg/mL.

Regarding `COc1ccc(S(=O)(=O)N2CCSC2C)cc1C` (centres undefined), the kinetic solubility was found to be 34.9 µg/mL (≈ 121 µM).

For `COc1ccc(C(=O)/C=C/Nc2ccc(S(N)(=O)=O)cc2)cc1OC`, the kinetic solubility came out at 7.9 µg/mL (≈ 21.8 µM).

Compound `COc1nc(Nc2ccccc2)nc(OC)n1` yielded a solubility (kinetic) of over 34.8 µg/mL. Compound `CCN1CCC(N2CCN(c3ccccc3OC)CC2)CC1` gave a solubility (kinetic) of over 45.5 µg/mL. The result for `O=C(COC(=O)c1cnccn1)Nc1ccc(Cl)cn1` reads over 43.9 µg/mL; that for `COC1c2ccccc2C(=O)N1Cc1ccc(F)cc1` (centres undefined), 37.4 µg/mL (≈ 138 µM). The result for `O=[N+]([O-])c1ccc(N2CCNCC2)cc1N1CCCCC1` reads over 43.6 µg/mL; that for `COC(=O)c1sccc1N/C=C(\C#N)S(=O)(=O)C(C)(C)C`, 2.3 µg/mL (≈ 7 µM); that for `CN(C)C(=O)N(CCCN1CCOCC1)Cc1cccc2ccccc12`, over 53.3 µg/mL. In turn, `CCOC(=O)C1CCN(S(=O)(=O)c2ccc(-c3ccccn3)s2)CC1` yielded a kinetic solubility of 3.9 µg/mL (≈ 10.2 µM). `O=C1NC2(CCCCCC2)C(=O)N1Cc1cccc(Cl)c1` showed a kinetic solubility of 15.8 µg/mL (≈ 51.5 µM). `COc1cc(CN2CCN(c3ncccn3)CC2)cc(OC)c1` yielded a solubility (kinetic) of over 47.2 µg/mL.

In turn, `CCCCN(C(=O)CSc1nc2ccccc2s1)c1c(N)n(CCCC)c(=O)[nH]c1=O` yielded a kinetic solubility of 35.6 µg/mL (≈ 77.1 µM). In the case of `CC1CCCCC1NC(=O)COc1ccccc1C#N` (centres undefined), the kinetic solubility is over 40.9 µg/mL. The figure for `CNC(=O)COc1ccc(Cl)c2cccnc12` is over 37.6 µg/mL; for `CC(C)[C@H](NC(=O)c1ccco1)C(=O)OCC(=O)c1ccc(Br)s1` it is over 62.1 µg/mL; for `COc1ccc(CC(=O)N2CCN=C2SC)cc1OC` it is over 44.2 µg/mL. With `COc1ccccc1NC(=O)c1ccc(NC(=O)c2ccco2)cc1`, the solubility (kinetic) turned out to be 8.5 µg/mL (≈ 25.3 µM). `COc1ccc(Cl)cc1C(=O)OCC(=O)c1ccc[nH]1` registered a kinetic solubility of 8.4 µg/mL (≈ 28.6 µM).

Compound `Cc1ccccc1NC(=O)CSc1nnc(-c2ccccn2)o1` gave a solubility (kinetic) of over 49 µg/mL.

In turn, `CCCCC(=O)Nc1ccc(C(=O)NCCN2CCOCC2)cc1` yielded a kinetic solubility of over 50 µg/mL. `Cc1ccccc1CN1CCN(CC(=O)NC(C)c2ccccc2)CC1` (centres undefined) came in with a solubility (kinetic) of 47.8 µg/mL (≈ 136 µM). In turn, `COC(=O)C1(C(C[N+](=O)[O-])c2ccc(C)cc2)C(=O)NCC1c1ccco1` (centres undefined) came in with a solubility (kinetic) of over 55.9 µg/mL. For the compound `CCOc1ccc(S(=O)(=O)NCCc2ccccn2)cc1`, the solubility (kinetic) is over 46 µg/mL. As to `O=C(/C=C/c1c(F)cccc1Cl)Nc1cccnc1`, the kinetic solubility was 13.7 µg/mL (≈ 49.5 µM). Regarding `COc1cc(OC)c(C(=O)NC23CC4CC(CC(C4)C2)C3)cc1OC`, the solubility (kinetic) was determined as 7.1 µg/mL (≈ 20.6 µM).

Turning to `CCCCCc1c(C)[nH]c2nc3ccccc3n2c1=O`, the solubility (kinetic) stood at 0.3 µg/mL (≈ 1.11 µM). `O=C(Nc1ccc(F)cc1)Nc1ccc2c(c1)OCO2` came in with a solubility (kinetic) of 0.7 µg/mL (≈ 2.55 µM).

Compound `COc1cc(NC(=O)c2cccc(S(=O)(=O)N3CCCCC3)c2)cc(OC)c1OC` returned a kinetic solubility of 7.2 µg/mL (≈ 16.6 µM). In turn, `NC(=O)C1CCN(CC(O)CSc2ccccc2)CC1` (centres undefined) displayed a kinetic solubility of over 44.2 µg/mL. For the compound `CC(=O)NC1C(=O)N=C(SCC(=O)Nc2c(C)cccc2C)NC1=O` (centres undefined), the solubility (kinetic) is over 54.4 µg/mL. `Cc1ccc(S(=O)(=O)N2CCOCC2)cc1C(=O)N1CCc2ccccc21` registered a solubility (kinetic) of 54.3 µg/mL (≈ 141 µM). Turning to `CC(C(=O)O)N1c2cccc3cccc(c23)S1(=O)=O` (centres undefined), the solubility (kinetic) was over 41.6 µg/mL. On to `O=C(Cn1cnc2ccccc21)OCC(=O)N1CCCCC1`, for which the solubility (kinetic) was over 45.2 µg/mL. On to `O=C(NC(=S)Nc1ccccc1Br)C1CCC1`, for which the kinetic solubility amounted to 7.8 µg/mL (≈ 24.9 µM). In turn, `CCN(CC)C(=O)c1ccc(NC(=O)c2c(C)noc2C)cc1` had a kinetic solubility of over 47.3 µg/mL. `COCc1cc(=O)[nH]c(N2CCN(C(=O)c3ccco3)CC2)n1` showed a kinetic solubility of over 47.7 µg/mL. The result for `Cc1ccc(N=C2NC(=O)/C(=C/c3cccnc3)S2)c(C)c1` reads 4.8 µg/mL (≈ 15.5 µM); that for `Cc1cc(NC(=O)NC(C)(C(F)(F)F)C(F)(F)F)no1`, over 45.8 µg/mL. `CC1CCC(NC(=O)CCNC(=O)c2ccccc2)CC1` (centres undefined): the solubility (kinetic) is over 43.3 µg/mL.

The compound `CC(C)(C)c1ccc(N2C(=N)SCC2=O)cc1` yielded a kinetic solubility of 15.8 µg/mL (≈ 63.6 µM).

Turning to `O=C(Nc1nccs1)c1cccc(NC(=O)C(F)(F)F)c1`, the kinetic solubility came to 38.8 µg/mL (≈ 123 µM). `O=C(Nc1cc2c3c(c1)CC(=O)N3CCC2)C1CC1` registered a solubility (kinetic) of over 38.4 µg/mL. In turn, `CC(C)(C)C(=O)NC1(C(F)(F)F)NC(=O)N(c2ccccc2F)C1=O` (centres undefined) gave a solubility (kinetic) of over 54.2 µg/mL.

Take `CC(=O)Nc1cc2c3c(c1)CC(=O)N3CCC2`: the kinetic solubility is over 34.5 µg/mL. With `O=S(=O)(NCC1COc2ccccc2O1)c1ccccc1F` (centres undefined), the kinetic solubility was over 48.5 µg/mL. In turn, `CCCN=C1CC(C)(C)CC(=O)/C1=C(/O)CCC` yielded a solubility (kinetic) of 37.5 µg/mL (≈ 149 µM).

As to `O=c1c2ccccc2ncn1-c1ccc([N+](=O)[O-])cc1[N+](=O)[O-]`, the solubility (kinetic) was 2.7 µg/mL (≈ 8.65 µM).

Source of the values: PubChem BioAssay AID1996.
